Experimental data: US20230348421A1, “5-HT2A RECEPTOR INHIBITOR OR INVERSE AGONIST, PREPARATION METHOD THEREFOR, AND APPLICATION THEREOF” (GENEORA PHARMA (SHIJIAZHUANG) CO., LTD., priority 2020, published 2023)

Experiments:
hERG potassium channels = hERG potassium channels (Homo sapiens (Human), UniProt Q12809); assay: hERG inhibitory activity, whole-cell patch clamp in CHO-hERG cells; conditions: read-out: hERG inhibitory activity IC50; CHO-hERG cells, whole-cell patch clamp, tail current at -50 mV
hERG potassium channels, sequence (Q12809 whole entry): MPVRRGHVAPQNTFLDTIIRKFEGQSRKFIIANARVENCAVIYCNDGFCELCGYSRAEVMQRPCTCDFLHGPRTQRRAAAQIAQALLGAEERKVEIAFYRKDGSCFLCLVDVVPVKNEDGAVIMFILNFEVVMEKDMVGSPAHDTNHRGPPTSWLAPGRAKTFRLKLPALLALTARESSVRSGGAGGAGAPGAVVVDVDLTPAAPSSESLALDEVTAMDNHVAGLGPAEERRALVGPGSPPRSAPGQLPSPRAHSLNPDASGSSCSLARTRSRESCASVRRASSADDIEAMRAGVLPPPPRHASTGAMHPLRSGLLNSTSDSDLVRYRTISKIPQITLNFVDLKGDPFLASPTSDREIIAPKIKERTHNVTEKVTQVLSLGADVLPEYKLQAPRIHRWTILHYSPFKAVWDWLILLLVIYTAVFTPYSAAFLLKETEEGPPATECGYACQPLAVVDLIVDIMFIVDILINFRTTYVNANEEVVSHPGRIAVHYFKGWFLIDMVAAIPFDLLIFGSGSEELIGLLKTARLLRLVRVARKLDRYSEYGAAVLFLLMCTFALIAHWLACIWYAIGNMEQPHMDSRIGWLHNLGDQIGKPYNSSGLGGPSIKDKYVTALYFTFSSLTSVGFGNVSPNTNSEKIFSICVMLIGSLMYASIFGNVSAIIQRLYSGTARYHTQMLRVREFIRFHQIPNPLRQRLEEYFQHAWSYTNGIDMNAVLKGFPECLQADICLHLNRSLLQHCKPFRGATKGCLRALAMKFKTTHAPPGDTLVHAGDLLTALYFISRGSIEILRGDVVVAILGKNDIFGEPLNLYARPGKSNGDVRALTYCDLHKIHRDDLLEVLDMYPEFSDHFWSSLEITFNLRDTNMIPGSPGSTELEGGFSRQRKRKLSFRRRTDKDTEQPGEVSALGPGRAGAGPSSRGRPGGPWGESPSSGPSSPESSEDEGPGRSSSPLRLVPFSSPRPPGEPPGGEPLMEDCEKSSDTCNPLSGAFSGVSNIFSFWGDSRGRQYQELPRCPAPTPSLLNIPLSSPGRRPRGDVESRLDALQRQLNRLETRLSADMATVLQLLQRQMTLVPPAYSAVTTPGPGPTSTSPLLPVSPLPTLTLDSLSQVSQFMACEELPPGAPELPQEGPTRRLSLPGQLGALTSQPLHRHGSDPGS
Experimental: • Name: Dimethyl sulfoxide (DMSO)
• Species & strains: CHO-hERG cell lines (Chinese hamster ovary cells stably expressing hERG channels) • Culture medium: 90% F12, 10% fetal bovine serum, 100 μg/mL G418 and 100 μg/mL hygromycin B • Culture conditions: 5% CO2, 37° C. incubator • Freezing conditions: Liquid nitrogen
Digestion was performed at room temperature for 3-5 min. The digestion solution was pipetted, and the cells were resuspended in extracellular fluid and transferred to an experimental dish for electrophysiological recording for later use.
On the day of the test, the compound was diluted with DMSO to an intermediate concentration. 10 μL of compound with the intermediate concentration was taken, transferred to 4990 μL of extracellular fluid, and subjected to 500-fold dilution to obtain a final concentration to be tested.
CHO (Chinese Hamster Ovary) cells stably expressing hERG potassium channels were taken, and hERG potassium channel currents were recorded at room temperature by means of a whole-cell patch-clamp technique. A glass microelectrode was formed by pulling a glass electrode blank (BF150-86-10, Sutter) with a glass microelectrode puller. The tip resistance was about 2-5 MΩ after perfusion of a pippette solution. The glass microelectrode could be connected to a patch clamp amplifier by inserting the glass microelectrode into an amplifier probe. Clamping voltages and data recording were controlled and recorded by a computer with pClamp 10 software, with a sampling frequency of 10 kHz and a filtering frequency of 2 kHz. After the whole-cell recording was obtained, the cells were clamped at −80 mV, and the step voltage evoking hERG potassium current (I hERG) was changed from −80 mV to +20 mV by giving a 2 s depolarization voltage and then repolarized to −50 mV for 1 s, and returned to −80 mV. Such voltage stimulation was given every 10 s, and the administration process was started after it was determined that the hERG potassium currents were stable (1 min). The compound at each test concentration was given at least 1 min, and at least 2 cells (n≥2) were tested for each concentration.
Data analysis was performed by means of pClamp 10 and GraphPad Prism 5.0 software.
The formula for calculating the degree of inhibition of different compound concentrations on hERG potassium currents (the hERG tail current peak value evoked at −50 mV) was:
Y=Bottom+(Top−Bottom)/(1+10^((LogIC50−X)*HillSlope))
wherein X is a Log value of a test concentration of a test sample, Y is the inhibition percentage at a corresponding concentration, and Bottom and Top are the minimum inhibition percentage and the maximum inhibition percentage, respectively.

5-HT2A receptor [1] = target: T1, 5-HT2A receptor (Homo sapiens (Human), UniProt P28223); assay: Screening for 5-HT2A inverse agonistic activity (NIH3T3-5-HT2A R cells, Bright-Glo luciferase, 120 h); assay type: cell-based; conditions: NIH3T3-5HT2AR cells, cell inhibition rate
T1 sequence (P28223 whole entry): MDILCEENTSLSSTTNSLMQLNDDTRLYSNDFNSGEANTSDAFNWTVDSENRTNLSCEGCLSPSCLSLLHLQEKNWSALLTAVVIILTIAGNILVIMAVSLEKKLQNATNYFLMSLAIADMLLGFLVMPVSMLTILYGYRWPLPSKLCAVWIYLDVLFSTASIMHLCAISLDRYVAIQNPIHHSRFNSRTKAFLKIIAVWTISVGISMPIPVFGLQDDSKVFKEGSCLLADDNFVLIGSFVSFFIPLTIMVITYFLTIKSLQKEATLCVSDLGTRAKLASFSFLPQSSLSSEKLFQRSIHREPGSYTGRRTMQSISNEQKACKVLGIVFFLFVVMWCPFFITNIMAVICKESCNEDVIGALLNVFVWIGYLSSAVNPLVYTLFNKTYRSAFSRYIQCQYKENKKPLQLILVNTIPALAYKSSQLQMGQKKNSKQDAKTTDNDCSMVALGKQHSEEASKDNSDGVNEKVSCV
Experimental: • Cell lines: Adherent cells NIH3T3-5-HT2A R • Cell culture medium: DMEM+10% FBS (purchased from GBICO) • Cell culture plate: White-wall clear-bottom 96-well plate (purchased from Perkin Elmer) • Detection kit: Bright-Glo™ Luciferase (purchased from Promega) • Detection instrument: BioTek multifunctional microplate reader
NIH3T3-5HT2AR cells in the logarithmic growth phase were seeded into a white-wall clear-bottom 96-well plate at a density of 1000 cells per well, and cultured overnight in a 37° C., 5% CO2 incubator. […] On the sixth day, a Bright-Glo™ Luciferase reagent with a volume equal to that of cell sap was added to the cells, and the cells were incubated at room temperature in the dark for 20 min. […] The data was processed with GraphPad Prism 7.0 to obtain a cell inhibition rate curve, and the IC50 was calculated.
Cell inhibition rate (%)=[100−(Lum test drug−Lum culture solution)/(Lum cell control−Lum culture solution)×100]%

5-HT2A receptor [2] = target: T1, 5-HT2A receptor; assay: Test for 5-HT2A antagonistic activity (calcium ion antagonism, FLIPR, CHO-K1/5-HT2A cells); assay type: cell-based; conditions: 100 nM a-methyl-5-HT, Ca2+ signal
Experimental: • Cell lines: CHO-K1/5-HT2A (Chempartner) • Cell culture medium: DMEM/F12+10% FBS (purchased from GBICO) • Cell culture plate: 384-well Assay Plate (purchased from Corning) • Detection kit: FLIPR® Calcium 4 Assay Kit (purchased from Molecular Devices)
After that, centrifugation was performed to remove the culture medium in the cell culture plate. Dye was added, and the cells were incubated in a 37° C., 5% CO2 incubator for another 1 h. The cell culture plate was placed on the FLIPR. A compound to be tested was added, and the Ca^2+ signal was detected, wherein the compound to be tested was subjected to 3-fold gradient dilution with PBS to obtain 10 concentrations, with the highest concentration of 10 uM, and double replicate wells were set up. […] In order to determine the test stability, risperidone was used as a positive control. The data were processed with GraphPad Prism 7.0 to obtain a cell inhibition rate curve, and the IC50 was calculated.
Inhibition rate (%)=100%−[(signal value of the compound to be tested−signal value of the test solution)/(the maximum signal value−the signal value of the test solution)]×100%

[3] = In-vitro stability in dog liver microsomes; assay type: in vitro ADME; conditions: for Remaining amount 60 min later: Dog liver microsomes 0.5 mg/mL, 1 μM, NADPH 1 mM
Experimental: (§1) • 1) formulation of test sample working solution: the test sample was diluted to 100 μM with methanol; • 2) formulation of liver microsome working solution: liver microsomes were diluted to 0.56 mg/ml with a 100 mM phosphate buffer; • 3) formulation of reduced nicotinamide adenine dinucleotide phosphate (NADPH) working solution: an appropriate amount of NADPH was weighted and diluted to 20 mM with a phosphate buffer, and then a 60 mM MgCl2 solution with the equal volume was added; • 4) formulation of stop solution: tolbutamide was diluted to 20 ng/mL with acetonitrile to serve as a stop solution containing an internal standard.
(§2) The remaining percentage of the test sample was tested 60 min later.

[4] = In-vivo pharmacokinetic test in rats after intragastric administration; conditions: SD rats; for AUC(0-t) / Cmax / MRT last / Tmax / half-life: rat, po, 46.7 umol/kg, 20% Solutol, plasma
Experimental: Blood was collected before administration and 0.25 h, 0.5 h, 1 h, 2 h, 3 h, 4 h, 6 h, 8 h, 12 h and 24 h after administration, respectively and placed in a heparinized EP tube, and the plasma was centrifugally separated. After the plasma was pre-treated, the concentrations of compounds in the plasma were determined by LC-MS/MS, and the pharmacokinetic parameters were calculated.

[5] = In-vitro stability in human liver microsomes; assay type: in vitro ADME; conditions: for Remaining amount 60 min later: Human liver microsomes 0.5 mg/mL, 1 μM, NADPH 1 mM
Experimental: as §1, §2

Row | SMILES | IC50 (hERG potassium channels) | IC50 (5-HT2A receptor [1]) | IC50 (5-HT2A receptor [2]) | Remaining amount 60 min later [3] | Stability compared with pimavanserin ([3]; dog liver microsomes in vitro) | AUClast relative to pimavanserin ([4]; 46.7 μmol/kg) | Cmax relative to pimavanserin ([4]; 46.7 μmol/kg) | T1/2 compared with pimavanserin ([4]; 46.7 μmol/kg) | AUC(0-t) [4] | Cmax [4] | MRT last [4] | Tmax [4] | half-life [4] | Remaining amount 60 min later [5] | Stability compared with pimavanserin ([5]; human liver microsomes in vitro)
1 | CN1CCC(N(Cc2ccc(F)cn2)C(=O)NCc2ccc(OCC(F)(F)F)cc2)CC1 [Compound 59] | 810 nM | 2.04 nM | 0.54 nM | 76.37% | obviously superior stability to that of pimavanserin | 4 times | 2 times | higher than that of pimavanserin | 17 ± 2.97 µM·h | 1140 ± 365 nM | 8.66 ± 0.89 h | 5.88 ± 5.14 h | 5.51 ± 1.33 h | 89.19% | obviously superior stability to that of pimavanserin
2 | CN1CCC(N(Cc2ccc(F)cn2)C(=O)NCc2ccc(OCCCC(F)(F)F)cc2)CC1 [Compound 82] | 500 nM | 1.95 nM | 3.78 nM |  |  |  |  |  |  |  |  |  |  |  | 
3 | CN1CCC(N(Cc2ccc(F)cn2)C(=O)NCc2ccc3c(c2)C=CC(C)(C)O3)CC1 [Compound 99] | 650 nM | 33.3 nM | 17.3 nM |  |  |  |  |  |  |  |  |  |  |  | 
4 | CC(C)COc1ccc(CNC(=O)N(Cc2ccc(F)cc2)C2CCN(C)CC2)cc1 [Pimavanserin, reference compound] |  |  |  | 29.72% |  |  |  |  | 4.29 ± 1.66 µM·h | 536 ± 260 nM | 5.61 ± 0.34 h | 2.75 ± 1.26 h | 2.38 ± 0.8 h | 77.44% | 
